# Source: patent US20210379067A1 (iOmx Therapeutics AG, priority 2018, published 2021)
# Key:
# K562 CML cells = conditions: similar study, cited from earlier work
# K562 human CML tumours = conditions: high doses; cited from earlier work
# M579-A2-luc cells = assay: Sensitisation of tumour cells to in-vitro TNF attack (luciferase-based viability readout); type: cell-based, human; conditions: TNF 10 ng/mL; compound between about 10 and 100 nM; FIG. 7
# Protocol: PANC1-luc is an HLA-A2.1+ luciferase-expressing pancreatic adenocarcinoma (PDAC) tumour cell line, and M579-A2-luc is an HLA-A2.1+ luciferase-expressing melanoma tumour cell line.
# After lysis, luciferase assay buffer is added and immediately the luciferase intensity was measured by using the TECAN-Spark microplate reader.
# SIK3 = molecular target: T1, SIK3 (Homo sapiens, UniProt Q9Y2K2); assay: 33PanQinase radiometric protein kinase assay (IC50); type: biochemical
# T1 construct: purchased ProQinase
# Protocol: (§1) Incorporation of 33Pi was determined with a microplate scintillation counter (Microbeta, Wallac).
# SIK1 = molecular target: T2, SIK1 (Homo sapiens, UniProt P57059); assay: as above; type: biochemical
# T2 construct: purchased ProQinase
# Protocol: as §1
# SIK2 = molecular target: T3, SIK2 (Homo sapiens, UniProt Q9H0K1); assay: as above; type: biochemical
# T3 construct: purchased ProQinase
# Protocol: as §1
# SRC = molecular target: T4, SRC (Homo sapiens, UniProt P12931); assay: as above; type: biochemical
# T4 construct: GST; HIS; purchased ProQinase (inferred from the trademark)
# Protocol: as §1
# ABL1 wt = molecular target: T5, ABL1 wt (Homo sapiens, UniProt P00519); assay: as above; type: biochemical
# T5 construct: the ABL1 wild-type protein (amino acids P118-S525); purchased ProQinase
# T5 sequence (P00519 118-535 limits assumed): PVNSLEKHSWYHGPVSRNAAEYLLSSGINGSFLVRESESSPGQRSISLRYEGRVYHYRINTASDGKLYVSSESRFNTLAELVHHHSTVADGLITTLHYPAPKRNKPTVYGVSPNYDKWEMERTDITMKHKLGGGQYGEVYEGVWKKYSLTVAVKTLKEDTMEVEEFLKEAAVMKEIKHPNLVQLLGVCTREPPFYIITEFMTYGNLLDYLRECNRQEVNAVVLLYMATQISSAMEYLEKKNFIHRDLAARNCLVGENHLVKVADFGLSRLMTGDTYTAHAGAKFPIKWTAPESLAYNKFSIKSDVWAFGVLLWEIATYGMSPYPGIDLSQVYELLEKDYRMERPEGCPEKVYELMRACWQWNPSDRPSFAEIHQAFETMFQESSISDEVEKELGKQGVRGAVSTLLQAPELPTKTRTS
# Protocol: as §1
# [1] = Mouse liver microsomal stability; type: in vitro ADME; conditions: liver microsomes, read-out: Intrinsic clearance
# in vitro = conditions: dog, MDCK
# MDR1 = assay: in vitro; conditions: dog, MDCK-MDR1
# PANC-1-luc cells = assay: Sensitisation of tumour cells to in-vitro TNF attack (luciferase-based killing assay); type: cell-based, human; conditions: compound plus rHuTNF (10 ng/mL) vs compound alone; FIG. 6
# Protocol: R&D Systems), and also the speed of onset of this effect. PANC1-luc is an HLA-A2.1+ luciferase-expressing pancreatic adenocarcinoma (PDAC) tumour cell line, and […]-A2-luc is an HLA-A2.1+ luciferase-expressing melanoma tumour cell line. […] After lysis, luciferase assay buffer is added and immediately the luciferase intensity was measured by using the TECAN-Spark microplate reader. The PANC1-luc cell line is constructed as follows: PANC-1 cells acquired from the American Type Cell Culture (ATCC). Tumour cells are transfected with a pEGFP-Luc plasmid, using TransIT-LT1 (Mirus) as transfection reagent. Transfected cells are selected with 1 mg/mL of G418/Geneticin, and 14 days after selection EGFP+ cells are sorted using, eg a BD […] II cell sorter.
# [2] = Human liver microsomal stability; type: in vitro ADME
# RAF1 = molecular target: T6, RAF1 (Homo sapiens, UniProt P04049, Y340D/Y341D); assay: Kinase Profiler single-point (1 uM) inhibition; type: biochemical; conditions: 1 uM compound, read-out: residual activity class (FIG. 3)
# T6 construct: purchased ProQinase, Freiburg, Germany (Kinase Profiler service)
# JAK1 aa583-1154 wt = molecular target: T7, JAK1 aa583-1154 wt (Homo sapiens, UniProt P23458); assay: Kinase Profiler single-point (1 uM) inhibition; type: biochemical
# T7 construct: JAK1 aa583-1154 wt; purchased ProQinase
# KU812 tumours = conditions: large KU812 tumours; 50 mg/kg/day for 5 days; cited from earlier work
# T1 sequence (Q9Y2K2 whole entry): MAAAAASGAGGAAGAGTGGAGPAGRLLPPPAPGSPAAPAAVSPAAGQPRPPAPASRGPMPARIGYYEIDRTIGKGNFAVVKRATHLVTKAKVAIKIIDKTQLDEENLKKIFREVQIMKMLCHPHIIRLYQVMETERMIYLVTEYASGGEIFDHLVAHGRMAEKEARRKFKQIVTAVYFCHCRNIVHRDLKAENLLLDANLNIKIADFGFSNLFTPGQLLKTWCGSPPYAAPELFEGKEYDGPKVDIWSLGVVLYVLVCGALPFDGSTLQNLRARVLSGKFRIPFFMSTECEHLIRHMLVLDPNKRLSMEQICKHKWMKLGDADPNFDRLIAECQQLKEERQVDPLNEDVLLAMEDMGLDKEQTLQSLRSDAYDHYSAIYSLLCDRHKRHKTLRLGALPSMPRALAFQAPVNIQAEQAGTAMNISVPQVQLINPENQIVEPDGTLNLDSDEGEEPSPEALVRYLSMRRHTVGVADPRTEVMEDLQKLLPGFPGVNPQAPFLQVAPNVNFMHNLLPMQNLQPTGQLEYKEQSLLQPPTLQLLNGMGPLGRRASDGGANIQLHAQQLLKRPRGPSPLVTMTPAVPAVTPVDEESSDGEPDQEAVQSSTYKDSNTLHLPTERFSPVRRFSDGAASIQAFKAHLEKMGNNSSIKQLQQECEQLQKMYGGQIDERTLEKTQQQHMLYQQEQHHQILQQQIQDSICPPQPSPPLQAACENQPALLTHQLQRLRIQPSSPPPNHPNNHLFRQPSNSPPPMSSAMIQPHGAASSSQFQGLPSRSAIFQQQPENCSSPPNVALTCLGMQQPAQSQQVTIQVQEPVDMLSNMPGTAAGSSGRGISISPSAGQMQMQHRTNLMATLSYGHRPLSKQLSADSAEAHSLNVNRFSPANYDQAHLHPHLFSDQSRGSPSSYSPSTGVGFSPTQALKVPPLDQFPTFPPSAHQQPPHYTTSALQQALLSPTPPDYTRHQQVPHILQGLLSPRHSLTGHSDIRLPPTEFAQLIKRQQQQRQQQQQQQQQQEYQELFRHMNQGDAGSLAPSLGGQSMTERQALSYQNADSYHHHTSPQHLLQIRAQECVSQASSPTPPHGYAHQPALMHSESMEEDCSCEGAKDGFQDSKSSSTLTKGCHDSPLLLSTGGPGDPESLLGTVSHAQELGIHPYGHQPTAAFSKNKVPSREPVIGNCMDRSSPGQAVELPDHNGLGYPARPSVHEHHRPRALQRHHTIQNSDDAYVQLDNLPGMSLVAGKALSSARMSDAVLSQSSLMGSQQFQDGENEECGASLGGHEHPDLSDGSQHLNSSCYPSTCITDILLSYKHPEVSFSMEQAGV
# T3 sequence (Q9H0K1 whole entry): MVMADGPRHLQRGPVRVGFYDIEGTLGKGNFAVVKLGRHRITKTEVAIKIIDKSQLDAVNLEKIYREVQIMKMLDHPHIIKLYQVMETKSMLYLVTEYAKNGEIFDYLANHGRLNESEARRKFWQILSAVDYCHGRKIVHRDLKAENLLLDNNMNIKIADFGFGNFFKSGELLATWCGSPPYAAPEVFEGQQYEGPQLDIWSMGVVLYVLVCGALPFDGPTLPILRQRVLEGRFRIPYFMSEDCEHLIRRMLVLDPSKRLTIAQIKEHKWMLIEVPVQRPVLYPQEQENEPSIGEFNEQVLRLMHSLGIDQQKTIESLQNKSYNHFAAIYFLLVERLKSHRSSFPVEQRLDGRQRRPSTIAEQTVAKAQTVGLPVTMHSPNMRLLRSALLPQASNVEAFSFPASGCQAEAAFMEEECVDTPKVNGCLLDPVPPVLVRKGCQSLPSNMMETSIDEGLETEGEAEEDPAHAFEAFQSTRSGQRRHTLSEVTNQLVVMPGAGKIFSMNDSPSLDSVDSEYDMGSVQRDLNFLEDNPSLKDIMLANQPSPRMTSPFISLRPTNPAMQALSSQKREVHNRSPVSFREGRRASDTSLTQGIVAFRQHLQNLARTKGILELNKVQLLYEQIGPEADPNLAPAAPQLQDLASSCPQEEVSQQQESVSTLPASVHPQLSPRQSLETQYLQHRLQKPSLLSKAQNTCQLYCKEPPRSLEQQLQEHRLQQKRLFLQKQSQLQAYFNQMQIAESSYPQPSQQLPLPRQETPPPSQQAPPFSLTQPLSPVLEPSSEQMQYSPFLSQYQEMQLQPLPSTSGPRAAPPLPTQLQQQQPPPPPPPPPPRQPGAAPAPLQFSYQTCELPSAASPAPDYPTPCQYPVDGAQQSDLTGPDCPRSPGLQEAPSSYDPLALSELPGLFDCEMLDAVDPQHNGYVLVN
# T2 sequence (P57059 whole entry): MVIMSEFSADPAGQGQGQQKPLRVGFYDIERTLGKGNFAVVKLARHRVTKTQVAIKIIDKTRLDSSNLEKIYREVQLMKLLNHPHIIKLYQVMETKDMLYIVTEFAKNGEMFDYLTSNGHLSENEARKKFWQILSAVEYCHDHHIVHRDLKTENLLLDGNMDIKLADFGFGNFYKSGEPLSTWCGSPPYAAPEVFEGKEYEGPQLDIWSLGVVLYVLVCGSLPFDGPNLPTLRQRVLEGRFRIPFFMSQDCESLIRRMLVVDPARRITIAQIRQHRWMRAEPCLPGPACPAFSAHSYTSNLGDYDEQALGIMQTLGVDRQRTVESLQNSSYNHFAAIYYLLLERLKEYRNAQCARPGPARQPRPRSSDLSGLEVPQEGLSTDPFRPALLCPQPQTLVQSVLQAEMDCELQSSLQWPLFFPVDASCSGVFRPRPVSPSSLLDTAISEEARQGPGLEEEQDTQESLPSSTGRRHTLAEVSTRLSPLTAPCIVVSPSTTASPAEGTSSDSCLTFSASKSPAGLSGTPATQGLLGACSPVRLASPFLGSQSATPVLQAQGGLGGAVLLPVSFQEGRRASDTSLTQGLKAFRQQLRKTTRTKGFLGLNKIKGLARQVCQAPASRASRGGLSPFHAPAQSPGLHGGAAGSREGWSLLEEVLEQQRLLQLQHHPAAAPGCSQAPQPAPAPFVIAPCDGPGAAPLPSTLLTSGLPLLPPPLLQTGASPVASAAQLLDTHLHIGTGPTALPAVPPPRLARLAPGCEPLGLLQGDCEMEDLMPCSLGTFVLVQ
# T4 sequence (P12931 whole entry): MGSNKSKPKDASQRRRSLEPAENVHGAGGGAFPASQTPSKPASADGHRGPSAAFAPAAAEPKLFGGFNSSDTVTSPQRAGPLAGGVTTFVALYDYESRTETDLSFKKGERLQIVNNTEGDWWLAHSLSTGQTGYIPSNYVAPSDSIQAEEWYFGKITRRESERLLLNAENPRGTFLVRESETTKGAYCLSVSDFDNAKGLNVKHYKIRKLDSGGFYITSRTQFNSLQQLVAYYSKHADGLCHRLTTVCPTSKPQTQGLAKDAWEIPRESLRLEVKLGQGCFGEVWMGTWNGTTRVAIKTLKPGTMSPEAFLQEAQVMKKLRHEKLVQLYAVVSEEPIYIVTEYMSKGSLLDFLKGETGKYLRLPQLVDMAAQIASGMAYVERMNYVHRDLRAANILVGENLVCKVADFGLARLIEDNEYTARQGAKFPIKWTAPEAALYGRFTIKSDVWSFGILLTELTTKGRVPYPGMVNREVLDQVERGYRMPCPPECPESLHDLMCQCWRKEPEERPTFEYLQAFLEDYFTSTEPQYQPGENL
# T7 sequence (P23458 583-1154): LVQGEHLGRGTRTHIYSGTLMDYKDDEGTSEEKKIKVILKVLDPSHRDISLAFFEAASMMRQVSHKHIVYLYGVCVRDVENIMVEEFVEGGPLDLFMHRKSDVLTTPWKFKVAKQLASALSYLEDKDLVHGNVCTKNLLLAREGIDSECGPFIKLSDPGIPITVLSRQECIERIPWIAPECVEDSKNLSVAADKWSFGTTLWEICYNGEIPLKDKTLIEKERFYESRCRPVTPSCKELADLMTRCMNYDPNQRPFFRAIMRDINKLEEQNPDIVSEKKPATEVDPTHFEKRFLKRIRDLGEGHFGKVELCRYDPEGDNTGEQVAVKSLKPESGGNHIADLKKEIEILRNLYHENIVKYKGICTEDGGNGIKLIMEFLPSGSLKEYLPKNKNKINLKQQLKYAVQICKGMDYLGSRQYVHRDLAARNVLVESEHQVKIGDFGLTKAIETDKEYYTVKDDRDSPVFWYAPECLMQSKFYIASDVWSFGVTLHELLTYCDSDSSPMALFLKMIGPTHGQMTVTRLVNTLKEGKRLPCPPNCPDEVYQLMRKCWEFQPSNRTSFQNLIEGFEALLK
# T6 sequence (P04049 307-648 Y340D/Y341D limits assumed): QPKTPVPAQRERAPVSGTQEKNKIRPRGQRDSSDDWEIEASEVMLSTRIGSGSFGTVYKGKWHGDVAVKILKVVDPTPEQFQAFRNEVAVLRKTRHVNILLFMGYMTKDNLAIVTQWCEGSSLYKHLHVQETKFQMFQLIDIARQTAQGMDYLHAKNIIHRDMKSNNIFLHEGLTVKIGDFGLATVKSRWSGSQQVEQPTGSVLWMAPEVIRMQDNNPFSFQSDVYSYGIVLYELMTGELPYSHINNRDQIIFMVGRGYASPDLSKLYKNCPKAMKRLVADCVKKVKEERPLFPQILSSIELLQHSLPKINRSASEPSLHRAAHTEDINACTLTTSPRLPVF
smiles,measurement,setting,value
Cc1ccc(NC(=O)c2ccc(CN3CCN(C)CC3)cc2)cc1Nc1nccc(-c2cccnc2)n1 [imatinib],intracranial tumour growth,K562 CML cells; 200 mg/kg/day,failed to inhibit intracranial tumour growth
same,tumour response,K562 human CML tumours,failed to produce a comparative response
"CCOc1cccc(Cl)c1NC(=O)c1cnc(Nc2cc(N3CCN(CCO)CC3)nc(C)n2)s1 [Compound B8, N-(2-Chloro-6-ethoxyphenyl)-2-((6-(4-(2-hydroxyethyl)piperazin-1-yl)-2-methylpyrimidin-4-yl)amino)thiazole-5-carboxamide]",tumour cell cytotoxicity with TNF compared to inhibitor alone,M579-A2-luc cells,fails to exhibit cytotoxicity
same,inhibitory activity,SIK3,low inhibitory activity against SIK family members
same,inhibitory activity,SIK1,low inhibitory activity against SIK family members
same,inhibitory activity,SIK2,low inhibitory activity against SIK family members
"COc1c(F)cccc1NC(=O)c1cnc(Nc2cc(N3CCN(CCO)CC3)nc(C)n2)s1 [Compound B4, N-(3-fluoro-2-methoxyphenyl)-2-((6-(4-(2-hydroxyethyl)piperazin-1-yl)-2-methylpyrimidin-4-yl)amino)thiazole-5-carboxamide]",tumour cell cytotoxicity with TNF compared to inhibitor alone,M579-A2-luc cells,fails to exhibit cytotoxicity
same,inhibitory activity,SIK3,weak inhibitor of SIK3
same,inhibitory activity,SIK1,strong inhibitor or SIK1 and SIK2
same,inhibitory activity,SRC,potent inhibitor of ABL1 & SRC
same,inhibitory activity,SIK2,strong inhibitor or SIK1 and SIK2
same,inhibitory activity,ABL1 wt,potent inhibitor of ABL1 & SRC
"Cc1nc(Nc2ncc(C(=O)Nc3c(Cl)cccc3Br)s2)cc(N2CCN(CCO)CC2)n1 [Compound B1, N-(2-bromo-6-chlorophenyl)-2-((6-(4-(2-hydroxyethyl)piperazin-1-yl)-2-methylpyrimidin-4-yl)amino)thiazole-5-carboxamide]",tumour cell cytotoxicity with TNF compared to inhibitor alone,M579-A2-luc cells,increased cytotoxicity
same,inhibitory activity,SIK3,pan-SIK and ABL1 & SRC inhibitor
same,inhibitory activity,SIK1,pan-SIK and ABL1 & SRC inhibitor
same,inhibitory activity,SIK2,pan-SIK and ABL1 & SRC inhibitor
"Cc1nc(Nc2ncc(C(=O)Nc3c(Cl)ccnc3C)s2)cc(N2CCN(CCO)CC2)n1 [Compound B3, N-(4-chloro-2-methylpyridin-3-yl)-2-((6-(4-(2-hydroxyethyl)piperazin-1-yl)-2-methylpyrimidin-4-yl)amino)thiazole-5-carboxamide]",microsomal CLint,[1],22 µL/min/mg
same,Papp A→B,in vitro,6.8 ×10⁻⁶ cm/s
same,Papp B→A,in vitro,20 ×10⁻⁶ cm/s
same,Papp A→B,MDR1,< 0.8 ×10⁻⁶ cm/s
same,Papp B→A,MDR1,20 ×10⁻⁶ cm/s
same,sensitisation of tumour cells to TNF attack,PANC-1-luc cells,sensitisation of tumour-cells to in-vitro TNF-attack
same,"drug remaining at 40 min, times more than dasatinib",[2]; hLM assay,10 times
same,"half-life, times longer than dasatinib",[2]; hLM assay,~6 times
same,microsomal CLint,"[2]; liver microsomes, human liver microsomal stability, read-out: Intrinsic clearance",24 µL/min/mg
"Cc1nc(Nc2ncc(C(=O)Nc3c(C)cccc3Cl)s2)cc(N2CCN(CCO)CC2)n1 [Compound A8, N-(2-chloro-6-methylphenyl)-2-((6-(4-(2-hydroxyethyl)piperazin-1-yl)-2-methylpyrimidin-4-yl)amino)thiazole-5-carboxamide]",survival,K562 CML cells; 10 and 30 mg/kg/day,increased survival
same,remaining activity at 1 µM,RAF1,< 25%
same,Residual activity (%) at 1 uM,JAK1 aa583-1154 wt,41%
same,tumour response,KU812 tumours,curative
same,sensitisation of tumour cells to TNF attack,PANC-1-luc cells,sensitisation of tumour-cells to in-vitro TNF-attack
